From patent US6469028B1, “Synthesis and use of retinoid compounds having negative hormone and/or anatgonist activities” (Allergan, Inc., priority 1995, dated 2002)
pKd: −log10 of the molar value. Like-named read-outs stand apart in the source and are kept apart here.

What was measured:
ER-RXR-α = experiment: Example 11: ER-RXR-α alone, ERE-tk-Luc, CV-1 cells
RARα [1] = biological target: T1, RARα (Homo sapiens, UniProt P10276); experiment: [3H]-ATRA displacement assay, baculovirus expressed receptor; assay type: binding; parameters: made in house; host or cells: baculovirus expression system
T1 sequence (P10276 1-462): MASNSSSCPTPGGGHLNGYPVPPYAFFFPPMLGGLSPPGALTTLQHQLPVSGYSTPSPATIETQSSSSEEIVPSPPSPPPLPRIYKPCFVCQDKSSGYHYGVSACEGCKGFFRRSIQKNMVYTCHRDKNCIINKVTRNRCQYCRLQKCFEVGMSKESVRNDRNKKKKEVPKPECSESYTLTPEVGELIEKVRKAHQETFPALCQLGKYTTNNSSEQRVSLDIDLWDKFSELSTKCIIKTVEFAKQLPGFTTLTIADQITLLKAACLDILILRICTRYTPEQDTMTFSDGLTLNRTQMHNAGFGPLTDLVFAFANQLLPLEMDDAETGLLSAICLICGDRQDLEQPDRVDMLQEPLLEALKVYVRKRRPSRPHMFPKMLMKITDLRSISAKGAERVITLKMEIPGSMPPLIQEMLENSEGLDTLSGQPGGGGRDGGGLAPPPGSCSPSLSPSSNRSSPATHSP

hairless mice = experiment: Example 2: skin irritation and weight loss by oral agonist, topical antagonist; assay type: in vivo
Method: Mice were simultaneously treated topically on the dorsal skin with vehicle (97.6% acetone/2.4% dimethylsulfoxide) or solutions of AGN 193109 in vehicle (6 ml/kg). Specific doses for the different treatment groups are give in Table 8. Treatments were administered daily for 4 consecutive days. Mice were weighed and graded for topical irritation daily as described in Example 1 up to and including 1 day after the last treatment. Percent body weight change is calculated by subtracting […], dividing by initial body weight, and multiplying by 100%. Topical irritation scores are calculated as described in Example 1.

[2] = system: cultured cervical carcinoma cells; experiment: Example 23: cultured cervical carcinoma cells from a patient biopsy; assay type: cell-based; details: 10^−10 to 10^−6 M
From the text: A patient presenting with an advanced cervical carcinoma is first identified. A cervical biopsy is obtained according to methods that will be familiar to one having ordinary skill in the art. Cells from the explanted tumor are propagated in tissue culture according to standard techniques to provide cell numbers sufficient to allow division into three sample groups. Culture conditions described by Agarwal et al. in Cancer Res. 54:2108 (1994) are employed for this purpose. The first group is reserved as a control and receives vehicle alone (ethanol). The second group is treated with the RAR agonist retinoic acid at a concentration of from 10^−10 to 10^−6 M. The third group is treated with AGN 193109 at doses ranging from 10^−10 to 10^−6 M. Cells are fed with fresh growth medium daily and are provided with the retinoids described above as appropriate for each sample group. Cells are counted after three days using an electric cell counter.

[3] = system: patients having retinal detachment resulting from PVR; details: 40 mg oral AGN 193109 + 4 mg oral 13-cis retinoic acid twice daily for four weeks
RARβ = biological target: T2, RARβ (Homo sapiens, UniProt P10826); experiment: Transactivation in CV-1 cells, ΔMTV-TREp-Luc reporter; assay type: cell-based; parameters: expressed in transfected cells; host or cells: green monkey CV-1 cells; details: 10^−9 to 10^−6 M, 18 hours
T2 sequence (P10826 1-448 isoform P10826-2): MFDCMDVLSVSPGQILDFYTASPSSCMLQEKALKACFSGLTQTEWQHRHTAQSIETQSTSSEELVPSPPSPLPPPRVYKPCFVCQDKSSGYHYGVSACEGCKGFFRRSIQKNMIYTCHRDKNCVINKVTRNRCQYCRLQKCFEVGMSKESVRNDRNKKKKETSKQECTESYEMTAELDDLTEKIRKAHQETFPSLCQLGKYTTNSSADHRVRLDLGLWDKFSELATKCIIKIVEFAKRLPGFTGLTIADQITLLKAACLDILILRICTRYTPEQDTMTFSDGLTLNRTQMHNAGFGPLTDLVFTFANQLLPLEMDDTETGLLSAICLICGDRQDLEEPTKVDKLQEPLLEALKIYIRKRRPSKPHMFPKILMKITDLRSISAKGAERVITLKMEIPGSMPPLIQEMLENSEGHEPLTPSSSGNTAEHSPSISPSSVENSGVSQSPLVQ
Method: (§1) AGN 193109 was also tested for its ability to transactivate RARs in CV-1 cells transiently cotransfected with RAR expression vectors and a retinoid responsive reporter gene construct. Receptor expression vectors pRShRAR-α (Giguere et al. Nature 330:624 (1987)), pRShRAR-β (Benbrook et al. Nature 333:669 (1988)) and pRShRAR-γ (Ishikawa et al. Mol. Endocrinol. 4:837 (1990)) were separately cotransfected with the ΔMTV-TREp-Luc reporter plasmid. Use of this luciferase reporter plasmid has been disclosed by Heyman et al. in Cell 68:397 (1992). The ΔMTV-TREp-Luc plasmid is essentially identical to the ΔMTV-TREp-CAT reporter construct described by Umesono et al. in Nature 336:262 (1988), except that the chloramphenicol acetyltransferase (CAT) reporter gene was substituted by a polynucleotide sequence encoding firefly luciferase. Transfection of green monkey CV-1 cells was carried out using the calcium phosphate coprecipitation method described in Molecular Cloning: A Laboratory Manual (Sambrook et al. eds. Cold Spring Harbor Lab Publ. 1989). CV-1 cells were plated at a density of 4×10^4/well in 12 well multiwell plates and transiently transfected with a calcium phosphate precipitate containing 0.7 μg of reporter plasmid and 0.1 μg of receptor plasmid according to standard laboratory procedures. […]

RARα [4] = biological target: T1, RARα; experiment: as above; assay type: cell-based; parameters: expressed in transfected cells; host or cells: green monkey CV-1 cells; details: 10^−9 to 10^−6 M, 18 hours
Method: as §1

[5] = group E: topical AGN 193109 0.47 mg/kg/d alone

`Cc1ccc(C2=CCC(C)(C)c3ccc(C#Cc4ccc(C(=O)O)cc4)cc32)cc1` [Compound 60, 4-[(5,6-dihydro-5,5-dimethyl-8-(4-methylphenyl)-2-naphthalenyl)ethynyl]benzoic acid] was tested, and the luciferase expression levels (ER-RXR-α; cells transfected only with ER-RXR-α, AGN 193109 as high as 10^−6 M) was “approximately 8,000 rlu”, the luciferase activity (ER-RXR-α; reporter and chimeric receptor without RAR-γ-VP-16) was “did not exhibit any effect on luciferase activity” and the Kd (RARα [1]; Table 11, read-out: Kd (nM) RAR-α) was 2 nM. For the same compound, the pKd (RARα [1]; as stated in Example 8, read-out: Kd at RAR-α) was 8.00, the “Topical Irritation Score” value (hairless mice; group C: topical AGN 193109 […] + oral AGN 191183 0.26 mg/kg/d) was 1 ± 1 and the “% Weight Gain or (Loss)” value (hairless mice; group C: topical AGN 193109 […] + oral AGN 191183 0.26 mg/kg/d, parentheses = loss) was “(9 ± 5) %”. The “Topical Irritation Score” value (hairless mice; group D: topical AGN 193109 0.47 mg/kg/d + oral AGN 191183 0.26 mg/kg/d) was 0 ± 1, the “% Weight Gain or (Loss)” value (hairless mice; group D: topical AGN 193109 0.47 mg/kg/d + oral AGN 191183 0.26 mg/kg/d, parentheses = loss) was “(3 ± 5) %” and the “% Weight Gain or (Loss)” value (hairless mice; [5]) was 3 ± 3%. For the same compound, the “Topical Irritation Score” value (hairless mice; [5]) was 0 ± 0, the “cell number after three days” value [2] was “dose-dependent decrease in cell number” and the “therapeutic outcome versus 40 mg oral 13-cis retinoic acid” value [3] was “equal to or better than”. For the same compound, the “EC50 (nM) RAR-β” value (RARβ) was “No Activity” and the “EC50 (nM) RAR-α” value (RARα [4]) was “No Activity”.
